Reference: patent publication US20110287432A1, “SYSTEM AND METHOD FOR TAILORING NUCLEOTIDE CONCENTRATION TO ENZYMATIC EFFICIENCIES IN DNA SEQUENCING TECHNOLOGIES” (454 Life Science Corporation, priority 2010, published 2011)

Key:
[1] = system: polymerase and apyrase; assay: Sequencing of C. jejuni shotgun libraries, nucleotide-specific CAFIE fit of raw reads; type: biochemical; conditions: average over 200 reads
Source text: In the present example, DNA Shotgun libraries of the genome C. jejuni were sequenced to calculate the nucleotide species concentrations optimized for polymerase and apyrase efficiencies. The second (TA) and the third (CG) columns of Table 4 show the relative percentage of T and A to C and G nucleotide species concentrations used in sequencing runs where a value for the 100% concentration may be based upon the calculated and normalized species relative ratio values from Table 3. For instance, using the figures from Table 3 100% of the G nucleotide species is 1.2 times greater the 100% of the C nucleotide species given the concentration ratio. Those of ordinary skill in the art will appreciate that C. jejuni is an AT rich genome generally meaning that there is a higher incidence of A and T nucleotide species in the genome composition than C and G nucleotide species. Thus, the relative percentages for TA and GC concentrations illustrated in FIG. 4 reflect that fact and typically would be different for a GC rich genome (i.e. the genome of T. thermophilus).
The average completion efficiency (i.e. to estimate incomplete extension) and carry forward values of each individual nucleotide species were inferred using a method described in detail below. The last column presents the average read lengths (RL) of the high quality reads obtained where increased read length correlates to an increased level of optimization of the combination of each nucleotide species concentration that is balanced for the species specific incorporation efficiency of polymerase to degradation efficiency of apyrase.
The average completion efficiencies and carry forward values of the individual nucleotide species were inferred using nucleotide-specific CAFIE (carry forward and incompletion extension) fit. For example, the sequencing process produces raw sequence reads typically processed by an embodiment of Image and Signal Processing software such as application 135. In the present example, application 135 maps (also referred to as an alignment by those of ordinary skill in the art) the raw sequence reads generated to a reference genome sequence associated with the samples sequenced, such as a consensus reference sequence of C. jejuni. As will be evident to those of ordinary skill, mapping/aligning the raw uncorrected sequence reads to a reference sequence can be employed to determine where CAFIE error occurs and determination of incidence of nucleotide species specific CAFIE error.
In the presently described example application 135 mapped 200 uncorrected sequence reads, represented as flowgrams, to the reference genome sequence and the first 100 iterations of the nucleotide flows considered for determination of optimal concentration of each of the nucleotide species by inferring the completion efficiencies and carry forward values. The detected signal strengths of each of the four nucleotide species were first normalized using the median 1-mer value for all nucleotide species. The term “1-mer value” as used herein generally refers to a value reflecting the degree of detected signal in response to an incorporation of a nucleotide species at a single sequence position which should be substantially the same for each of the nucleotide species. Typically this the 1-mer value is easiest to calculate from detected signals obtained at the beginning of a sequencing run of a template nucleic acid molecule because the key element in an adaptor includes a single representative of each nucleotide species in a key element at a known position (i.e. a TCAG key element) and thus it is expected that only a single nucleotide of each species is incorporated at each of the four sequence positions.
The completion efficiency and carry forward values illustrated in Table 4 can be inferred using a three-stage minimization process for each individual sequence read. […]

[2] = system: apyrase; assay: Enzyme kinetics of apyrase across multiple nucleotides (Michaelis-Menten); type: biochemical; conditions: for Km: Michaelis constant of apyrase for the nucleotide species; for VApy-dNTP (estimated apyrase activity): Michaelis-Menten calculation, dTTP, α-thio-dATP, dCTP, dGTP at 40.3, 166.1, 16.3, 19.7 μM; for Vmax: maximum rate of apyrase for the nucleotide species; for Apyrase activity ratio: normalized to the value of dCTP
Source text: The nucleotide species specific steady-state apyrase concentration may be computed using what is referred to as the Michaelis-Menten kinetics to mathematically approximate the kinetic characteristics of an enzyme based upon the assumption that simple kinetic conditions exist. The Michaelis-Menten equation uses constant values that vary by nucleotide species and include the Michaelis constant KM and the maximum rate Vmax of enzyme activity in a reaction environment.
In the present example, apyrase is effectively exposed to only one type of nucleotide species at a given time due to the iterative nature of the sequencing reagent flows. The reaction rates between apyrase and each nucleotide species can be estimated using the following formula: […]
where [dNTP] is the concentration of dTTP, dATP, dCTP or dGTP.
Continuing with the present example, the nucleotide species concentrations used for the computation for dTTP, α-thio-dATP, dCTP and dGTP are 40.3, 166.1, 16.3 and 19.7 μM respectively in the reaction environment. It will be appreciated that the concentration value for α-thio-dATP is substantially higher than the concentrations of the other nucleotide species which is due to the modification that has an inhibitory effect upon the incorporation efficiency of a polymerase enzyme (i.e. thus a higher concentration improves the likelihood of polymerase incorporation) as well as an increased processing efficiency of the apyrase as illustrated in greater detail below. In some embodiments the more “natural” dATP species may be used in place of α-thio-dATP and may have a different value for nucleotide species concentration reflecting the higher efficiency of enzyme processing for that species. The estimated activities of apyrase from the Michaelis-Menten calculation towards the different nucleotide species are shown in the Table 2 below. It should again be noted that the calculated efficiency of apyrase to α-thio-dATP illustrated in Table 2 is substantially higher than for the other species and thus apyrase would be expected to process a higher concentration of α-thio-dATP in an efficient manner.

[3] = Run 1, relative concentration TA 120%, CG 140%
[4] = Run 2, relative concentration TA 140%, CG 140%
[5] = Run 3, relative concentration TA 120%, CG 160%

Km [2] [µM]	VApy-dNTP (estimated apyrase activity) [2] [μM/10 min]	Vmax [2] [μM/10 min]	Apyrase activity ratio [2]	Structure (SMILES)	average carry forward [1, 3]	average completion efficiency [1, 3]	average carry forward [1, 4]	average completion efficiency [1, 4]	average carry forward [1, 5]	average completion efficiency [1, 5]
8.1	51.2	47.4	1.6	Nc1nc2c(ncn2[C@H]2C[C@H](O)[C@@H](COP(=O)(O)OP(=O)(O)OP(=O)(O)O)O2)c(=O)[nH]1 [dGTP]	0.0048	0.9990	0.0075	0.9992	0.0057	0.9994
76.5	31.7	250.0	1.0	Nc1ccn([C@H]2C[C@H](O)[C@@H](COP(=O)(O)OP(=O)(O)OP(=O)(O)O)O2)c(=O)n1 [dCTP]	0.0062	0.9988	0.0058	0.9986	0.0065	0.9991
107	80.4	294.1	2.5	Cc1cn([C@H]2C[C@H](O)[C@@H](COP(=O)(O)OP(=O)(O)OP(=O)(O)O)O2)c(=O)[nH]c1=O [dTTP]	0.0006	0.9968	0.0013	0.9975	0.0008	0.9959

Structure (SMILES)	Km [2] [µM]	VApy-dNTP (estimated apyrase activity) [2] [μM/10 min]	Vmax [2] [μM/10 min]	Apyrase activity ratio [2]	average carry forward [1, 3]	average completion efficiency [1, 3]	average carry forward [1, 4]	average completion efficiency [1, 4]	average carry forward [1, 5]	average completion efficiency [1, 5]
Nc1ncnc2c1ncn2[C@H]1C[C@H](O)[C@@H](COP(O)(=S)OP(=O)(O)OP(=O)(O)O)O1 (stereo partly drawn) [α-thio-dATP]	115	137.5	232.6	4.3	0.0035	0.9977	0.0033	0.9971	0.0043	0.9978
